Assay results: patent US11331338B2, “Hydrogen sulfide releasing polymer compounds” (CROMA-PHARMA GESELLSCHAFT M.B.H., priority 2016, dated 2022)

Tests used:
[1] = Olfactory test for H2S liberation; details: dissolved in acetone/phosphate buffer, excess L-cysteine
[2] = Detection of released H2S by embrowning Pb-acetate paper after thiol addition; details: excess amounts of L-cysteine or cysteamine
Procedure: 850 mg polymer was obtained as a white, fibrous product with an estimated molecular weight of 270 kDa (based on the starting material) and a degree of modification with H2S releasing perthiol structures of […] polymer. This corresponds to a conversion rate of 98% of the thiol moieties of the polymer used as starting material. […] Emerging H2S was detected by embrowning Pb-acetate paper.
This finding was later confirmed by detecting H2S release after addition of excess amounts of L-cysteine or cysteamine to 4-amino-N-(benzoylthio)benzamide via embrowning Pb-acetate paper.

[3] = tested on: immortalized human microvascular endothelial cells (HMEC-1); assay: Cell compatibility / proliferation (WST-1); assay type: cell-based; details: HMEC-1 compared with the other cell types
Excerpt: In order to study cell compatibility, especially the effect of proliferation, the H2S releasing hyaluronic acid derivative according to FIG. 1A (s. above,) was investigated in comparison with unmodified HA (sodium salt of hyaluronic acid, “NA HA”) and an […] thiolated hyaluronic acid (“Thiomer CAPPY”). As further control, the well established commercially available H2S donor N-(benzoylthio)benzamide (Donor 5a is NSHD1, a small molecule with a thiol activation mechanism) was included in the experiments.
Three types of skin cells were used as models: primary human dermal fibroblasts (dFb), the immortalized line of human microvascular endothelial cells (HMEC-1) and the keratinocyte cell line HaCat. The cells were cultured in their appropriate medium. Synthetic medium Fibrolife with supplements and gentamycin was used for dFb, EBM+supplements was used for HMEC-1 and DMEM with 10% FCS and 1% CellShield was used for HaCat cells. Furthermore, 3 mM cysteine was added to all conditions investigated. […] Cells were seeded and grown at least overnight before medium was changed and the HA components were added according to the agreed protocol. […] Cell proliferation was measured indicated by using a WST-1-based colorimetric detection reagent according to manufacturers' protocol with fresh medium without addition of any HA-derivative. […]

| SMILES | H2S liberation, olfactory test [1] | H2S release detected by Pb-acetate paper [2] | sensitivity of endothelial cells to H2S [3] |
| --- | --- | --- | --- |
| Nc1ccc(C(=O)NSC(=O)c2ccccc2)cc1 [4-amino-N-(benzoylthio)benzamide] | indicated H2S liberation | H2S release | – |
| O=C(NSC(=O)c1ccccc1)c1ccccc1 [Donor 5a, N-(benzoylthio)benzamide] | – | – | most sensitive |
